According to US20030186997A1, “2,5-Dihydro-pyrazolo[3,4-d]pyrimidin-4-ones with an anticonsulsive action and methods for producing the same” (priority 2000, published 2003):

Tests used:
[1] = Octanol/water partition coefficient; format: physicochemical
maximal electroshock = experiment: Anticonvulsant action, maximal electroshock (MES), mouse i.p.; format: in vivo; conditions: ip, read-out: Action in % of the protected animals
Description: (§1) The compounds according to the invention were tested for their anticonvulsant action in vivo after i.p. administration to mice according to the international customary standard (Pharmac. Weekblad, Sc. Ed. 14, 132 (1992) and Antiepileptic Drugs, Third Ed., Raven Press, New York 1989) (Table 1). [table]

s.c. pentetrazole = experiment: Anticonvulsant action, s.c. pentetrazole (PTZ), mouse i.p.; format: in vivo; conditions: ip, read-out: Action in % of the protected animals
Description: as §1

Compound `O=c1c2cn(CC3CCCO3)nc2ncn1Cc1ccccc1Cl` (stereo not drawn) [Compound 60, 5-(2-chlorobenzyl)-2-tetrahydrofuran-2-ylmethyl-2,5-dihydropyrazolo[3,4-d]pyrimidin-4-one] has a melting point of 128 to 130 °C, a logP [1] of 1.67 and a responders at 100 mg/kg (maximal electroshock) of 67%.
With `Cn1cc2c(=O)n(Cc3ccccc3)cnc2n1` [Compound 13, 5-benzyl-2-methyl-2,5-dihydropyrazolo[3,4-d]pyrimidin-4-one] the melting point was 202 to 204 °C, the logP [1] was 0.72 and the responders at 100 mg/kg (maximal electroshock) was 100%.
In the case of `NC(=O)N1c2ccccc2C=Cc2ccccc21` [Carbamazepine, reference compound], the responders at 100 mg/kg (maximal electroshock) is reported as 100% and the responders at 100 mg/kg (s.c. pentetrazole) is reported as 0%.
In the case of `O=c1c2cn(Cc3ccccc3Cl)nc2ncn1Cc1ccccc1Cl` [Compound 58, 2,5-bis(2-chlorobenzyl)-2,5-dihydropyrazolo[3,4-d]-pyrimidin-4-one], the melting point is reported as 167 to 168 °C and the logP [1] is reported as 2.59.
`O=c1c2c[nH]nc2ncn1Cc1ccccc1C(F)(F)F` [Compound 8, 5-(2-trifluoromethylbenzyl)-2,5-dihydropyrazolo[3,4-d]-pyrimidin-4-one] gave a melting point of 168 to 171 °C, a logP [1] of 0.78 and a responders at 100 mg/kg (maximal electroshock) of 67%. It also gave a responders at 100 mg/kg (s.c. pentetrazole) of 20%.
In the case of `O=c1c2c[nH]nc2ncn1Cc1ccc(Cl)cc1Cl` [Compound 4, 5-(2,4-dichlorobenzyl)-2,5-dihydropyrazolo[3,4-d]-pyrimidin-4-one], the melting point is reported as 236 to 237 °C, the logP [1] is reported as 1.96 and the responders at 100 mg/kg (maximal electroshock) is reported as 100%. It also gave a responders at 300 mg/kg (s.c. pentetrazole) of 40%.
`O=c1c2c[nH]nc2ncn1Cc1ccc(F)cc1` [Compound 3, 5-(4-fluorobenzyl)-2,5-dihydropyrazolo[3,4-d]pyrimidin-4-one] showed a melting point of 260 to 261 °C, a logP [1] of 0.62 and a responders at 100 mg/kg (maximal electroshock) of 33%. It also gave a responders at 300 mg/kg (s.c. pentetrazole) of 60%.
Compound `Cc1ccccc1Cn1cnc2n[nH]cc2c1=O` [Compound 6, 5-(2-methylbenzyl)-2,5-dihydropyrazolo[3,4-d]pyrimidin-4-one] has a melting point of 221 to 222 °C, a logP [1] of 1.36 and a responders at 100 mg/kg (maximal electroshock) of 67%. The responders at 300 mg/kg (s.c. pentetrazole) was 100%.
Compound `Cn1cc2c(=O)n(Cc3cccc(Cl)c3)cnc2n1` [Compound 19, 5-(3-chlorobenzyl) -2-methyl-2,5-dihydropyrazolo[3,4-d]-pyrimidin-4-one] has a melting point of 169 to 170 °C, a logP [1] of 1.56 and a responders at 100 mg/kg (maximal electroshock) of 100%.
`CC(C)n1cc2c(=O)n(Cc3c(F)cccc3Cl)cnc2n1` [Compound 43, 5-(2-chloro-6-fluorobenzyl)-2-isopropyl-2,5-dihydropyrazolo[3,4-d]pyrimidin-4-one] gave a melting point of 159 to 161 °C, a logP [1] of 1.88 and a responders at 300 mg/kg (maximal electroshock; dose 300 mg/kg) of 100%. For the same compound, the responders at 300 mg/kg (s.c. pentetrazole) was 33%.
`O=c1c2c[nH]nc2ncn1Cc1ccccc1` [5-benzyl-2,5-dihydropyrazolo[3,4-d]pyrimidin-4-one, reference compound] gave a logP [1] of 0.47, a responders at 30 mg/kg (maximal electroshock) of 100% and a responders at 30 mg/kg (s.c. pentetrazole; dose 30 mg/kg) of 100%.
`CCCC(CCC)C(=O)O` [Valproate, reference compound] showed a responders at 100 mg/kg (maximal electroshock) of 0% and a responders at 100 mg/kg (s.c. pentetrazole) of 30%.
For `O=c1c2c[nH]nc2ncn1Cc1c(F)cccc1F` [Compound 5, 5-(2,6-difluorobenzyl)-2,5-dihydropyrazolo[3,4-d]-pyrimidin-4-one], the melting point was 214 to 216 °C, the logP [1] was 0.28 and the responders at 30 mg/kg (maximal electroshock) was 100%.
For `O=c1c2c[nH]nc2ncn1Cc1ccc(Cl)cc1` [Compound 2, 5-(4-chlorobenzyl)-2,5-dihydropyrazolo[3,4-d]pyrimidin-4-one], the melting point was 246 to 247 °C, the logP [1] was 1.34 and the responders at 100 mg/kg (maximal electroshock) was 33%.
`Cc1ccc(Cn2cnc3nn(Cc4ccccc4)cc3c2=O)cc1` [Compound 55, 5-(4-methylbenzyl)-2-benzyl-2,5-dihydropyrazolo[3,4-d]-pyrimidin-4-one] showed a melting point of 167 to 169 °C.
